Three molecules from ChEMBL document CHEMBL3596185, “Combining Mass Spectrometric Metabolic Profiling with Genomic Analysis: A Powerful Approach for Discovering Natural Products from Cyanobacteria” (J Nat Prod, 2015) can be followed below.

Molecules are shown by their SMILES.

In general, Ki refers to the dissociation constant of the complex between target and ligand, obtained from inhibition or displacement.

One experiment has as its target Cannabinoid receptor 1 (Homo sapiens, UniProt P21554). Put plainly: Displacement of [3H]-CP55940 from human recombinant CB1 receptor expressed in HEK293 cells after 90 mins by scintillation counting analysis. In kind it is cell-based. On the technique in general: Displacement assays read how much labelled ligand stays bound in the presence of the test substance.
For a further experiment, the species on record is Homo sapiens. Put plainly: Selectivity ratio of Ki for human recombinant CB2 receptor to Ki for human recombinant CB1 receptor.
The target in the next experiment is Cannabinoid receptor 2 (Homo sapiens, UniProt P34972). Put plainly: Displacement of [3H]-CP55940 from human recombinant CB2 receptor expressed in HEK293 cells after 90 mins by scintillation counting analysis. In kind it is cell-based.
Chain of Cannabinoid receptor 2 (P34972 whole entry): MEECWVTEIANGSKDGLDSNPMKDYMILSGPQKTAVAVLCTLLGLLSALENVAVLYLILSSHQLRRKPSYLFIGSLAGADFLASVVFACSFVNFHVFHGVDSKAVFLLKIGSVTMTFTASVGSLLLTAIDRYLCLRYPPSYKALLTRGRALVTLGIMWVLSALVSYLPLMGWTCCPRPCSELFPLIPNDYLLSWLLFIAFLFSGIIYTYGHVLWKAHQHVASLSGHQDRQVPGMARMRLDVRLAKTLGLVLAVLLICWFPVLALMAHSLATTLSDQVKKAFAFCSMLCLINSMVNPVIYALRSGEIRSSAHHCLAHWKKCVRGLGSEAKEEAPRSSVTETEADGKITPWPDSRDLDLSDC

Chain of Cannabinoid receptor 1 (P21554 whole entry): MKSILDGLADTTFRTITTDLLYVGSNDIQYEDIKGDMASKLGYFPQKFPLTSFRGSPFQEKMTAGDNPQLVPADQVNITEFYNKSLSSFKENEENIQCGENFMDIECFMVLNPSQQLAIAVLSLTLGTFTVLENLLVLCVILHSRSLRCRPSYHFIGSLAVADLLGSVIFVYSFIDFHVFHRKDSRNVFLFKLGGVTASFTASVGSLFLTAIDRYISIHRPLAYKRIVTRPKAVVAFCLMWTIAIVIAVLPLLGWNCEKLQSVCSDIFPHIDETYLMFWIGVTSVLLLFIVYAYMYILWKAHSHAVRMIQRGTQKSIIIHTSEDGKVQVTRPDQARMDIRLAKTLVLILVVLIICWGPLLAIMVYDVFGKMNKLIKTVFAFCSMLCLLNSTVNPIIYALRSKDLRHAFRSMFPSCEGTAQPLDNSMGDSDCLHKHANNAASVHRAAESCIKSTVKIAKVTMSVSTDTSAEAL

For the molecule `C=CCCC/C=C/C=C(\C)CCCC/C=C/CC/C=C\C(=O)NC(CO)CO`, the Ki on Cannabinoid receptor 1 stood at 470 nM.
Turning to `COC[C@@H](COC(C)=O)N(C)C(=O)CC/C=C/CCCCC(Cl)CCCCCC(Cl)Cl` (some centres not stated), the results for the Ki at Cannabinoid receptor 1 and on Cannabinoid receptor 2 were 410 nM and 860 nM, respectively. Also, the Ratio Ki in the experiment listed under Homo sapiens worked out at 2.
Regarding `COC[C@@H](COC(C)=O)N(C)C(=O)CC/C=C/CCCCC(Cl)CCCCCCCl` (some centres not stated), the figures for the Ki at Cannabinoid receptor 1 and on Cannabinoid receptor 2 were 590 nM and 1030 nM, respectively. For the same molecule, the Ratio Ki in the experiment listed under Homo sapiens was found to be 2.
